Results as given in paper PMC10552397 (Cell Communication and Signaling : CCS, 2023).

Columns and labels:
GRASP55 = GRASP55 (Homo sapiens, UniProt Q9H8Y8); assay: CETSA (immunoblot quantification of non-denatured GRASP55); assay type: binding; set-up: endogenous in cells; host or cells: HeLa wt cells; conditions: 100 nM, 6 h, HeLa wt, vs DMSO
Method: Adherent cells were washed in the dish once with DPBS and harvested by Trypsin–EDTA (0.25%, Thermo Fisher Scientific, Waltham, MA, USA, #25,200,056) treatment. After addition of 35 mL DPBS, the cells were pelleted by centrifugation (300 rcf, 5 min, 4 °C), and washed twice by re-suspending and pelleting using 45 mL and 1 mL DPBS, respectively, to remove excess trypsin and for transfer into pre-weighed 2 mL Eppendorf tubes to determine the cell pellet wet weights as quality check after centrifugation (300 rcf, 5 min, 4 °C) and complete removal of the supernatant. […]
After temperature treatment, samples were supplemented with lysis buffer (final concentrations: 0.36 U/µL benzonase, 1.5 mM MgCl2, 1 mM Na3VO4, 10 mM NaF, 2.5 mM Na4P2O7, 0.8% w/v NP-40) for 1 h on ice. […] The total protein concentration of the resulting cell extracts containing the fraction of soluble, non-denatured proteins was determined (Pierce 660 nm Protein Assay, BSA as standard). […] The two (37 °C or 50 °C) x ten (concentrations) x three (replicates) = 60 TPP-CCR samples and two (treatment and control) x ten (temperatures) x three (replicates) = 60 TPP-TR samples were analyzed by LC–MS/MS. GRASP55 was additionally quantified from the TPP-TR samples by immunoblotting as described in the respective section. […]

HeLa wt cells = assay: Immunoblot of LC3-II and SQSTM1 (autophagic flux); assay type: cell-based; conditions: 100 nM, 6 h
Method: For SDS PAGE and western blotting, cells were harvested by scraping, pelletized at 150 rcf and 4 °C for 5 min, washed with DPBS and quickly frozen in liquid nitrogen. Cells were lysed in lysis buffer (20 mM Tris–HCl, 150 mM NaCl, 500 µM EDTA, 1% [v/v] Triton X-100, 1 mM Na3VO4, 10 mM NaF, 2.5 mM Na4P2O7, 1X protease inhibitor cocktail [Roche, Basel, Switzerland, #4693132001]) for 30 min on ice and the lysates were cleared by centrifugation at 18,000 rcf and 4 °C for 15 min. Protein concentration was determined by Bradford assay and sample buffer was added (62.5 mM Tris, 8.6% [v/v] glycerol, 2% [w/v] SDS, 33.3 µg/mL bromophenol blue, 1% [v/v] β-mercaptoethanol). […] For CETSA analysis of TPP-TR samples, the protein concentration was determined by Pierce 660 nm Protein Assay and the protein concentration of the 36.5 °C treated sample of each treatment and replicate was used for the other nine samples of the respective sample set to display temperature-dependent total protein aggregation and precipitation. […] After separation by SDS-PAGE, proteins were transferred to PVDF membranes (Merck, Darmstadt, Germany, #IPFL00010), blocked with 5% milk powder in TBST and analyzed using the indicated primary antibodies followed by appropriate IRDye 800- or IRDye 680-conjugated secondary antibodies (LI-COR Biosciences, Lincoln, NE, USA). […]

CCCCCC1=C/C(=C/c2[nH]c(-c3ccc[nH]3)cc2OC)N=C1C [Prodigiosin, prodigiosin]
dif GRASP55 (CETSA), melting point difference (GRASP55): 4.5 | LC3-II level (HeLa wt cells): accumulated | starvation-induced degradation of SQSTM1 (HeLa wt cells; EBSS): blocked
